Test results as given in patent EP1779853A2, “9a-azalides as veterinary antimicrobial agents” (Merial Ltd., priority 1997, dated 1999).
In brackets after ≈: the same amount, converted by molar mass.

How the values were obtained:
Test in all cases: MIC determination (culture tube dilution) against veterinary pathogens
Format in all cases: cell-based
[1] = test system: E. coli; settings: Escherichia coli, one range summarising both compounds
Procedure: (§1) The antibacterial activity of representative 9a-azalides against a panel of veterinary pathogens was determined by the minimum inhibitory concentration (MIC) method well known in the art. This is done by preparing a series of culture tubes, each containing a medium with a different concnetration of the antimicrobial agent, and inoculating all the tubes with the same organism. The lowest concentration of agent that completely prevents the appearance of turbidity is noted, and this concentration is called the MIC.

[2] = test system: P. multocida; settings: Pasteurella multocida, one range summarising both compounds
Procedure: as §1

[3] = test system: A. pleuropneumoniae; settings: Actinobacillus pleuropneumoniae, one range summarising both compounds
Procedure: as §1

[4] = test system: P. haemolytica; settings: Mannheimia haemolytica, one range summarising both compounds
Procedure: as §1

[5] = test system: H. somnus; settings: one range summarising both compounds
Procedure: as §1

[6] = test system: Salmonella spp.; settings: one range summarising both compounds
Procedure: as §1

Compound	MIC [1]	MIC [2]	MIC [3]	MIC [4]	MIC [5]	MIC [6]
CC[C@H]1OC(=O)[C@H](C)[C@@H](O[C@H]2C[C@@](C)(OC)[C@@H](N)[C@H](C)O2)[C@H](C)[C@@H](O[C@@H]2O[C@H](C)C[C@H](N(C)C)[C@H]2O)[C@](C)(O)C[C@@H](C)CN(C)[C@H](C)[C@@H](O)[C@]1(C)O [4"-deoxy-4"-aminoazithromycin]	0.5 to 16 µg/mL (≈ 0.668 to 21.4 µM)	0.125 to 2 µg/mL (≈ 0.167 to 2.67 µM)	0.062 to 0.5 µg/mL (≈ 0.0829 to 0.668 µM)	0.125 to 0.5 µg/mL (≈ 0.167 to 0.668 µM)	0.062 to 0.25 µg/mL (≈ 0.0829 to 0.334 µM)	1 to 16 µg/mL (≈ 1.34 to 21.4 µM)
CC[C@H]1OC(=O)[C@H](C)[C@@H](O[C@H]2C[C@@](C)(OC)[C@@H](O)[C@H](C)O2)[C@H](C)[C@@H](O[C@@H]2O[C@H](C)C[C@H](N(C)C)[C@H]2O)[C@](C)(O)C[C@@H](C)CN(C)[C@H](C)[C@@H](O)[C@]1(C)O [azithromycin, 9-deoxo-9a-aza-9a-methyl-9a-homoerythromycin A]	0.5 to 16 µg/mL (≈ 0.668 to 21.4 µM)	0.125 to 2 µg/mL (≈ 0.167 to 2.67 µM)	0.062 to 0.5 µg/mL (≈ 0.0828 to 0.668 µM)	0.125 to 0.5 µg/mL (≈ 0.167 to 0.668 µM)	0.062 to 0.25 µg/mL (≈ 0.0828 to 0.334 µM)	1 to 16 µg/mL (≈ 1.34 to 21.4 µM)
